Assay results from patent US20070225255A1, “Use of Mitochondrially Targeted Antioxidant in the Treatment of Liver Diseases and Epithelial Cancers” (priority 2004, published 2007).

Experiments:
[1] = fed in drinking water for 3 to 7 days, 500 μM or 1 mM (MitoVit E 500 μM); cited from earlier work
[2] = system: DDC- or GF intoxicated mice; experiment: Toxic memory effect upon reintoxication with DDC or GF after recovery; assay type: in vivo, mouse; details: 10 weeks DDC or GF, 4 weeks recovery, reexposure 24 to 72 hours with simultaneous treatment
Description: Mouse livers respond to DDC- or GF intoxication first with ballooning of hepatocytes and formation of a denser keratin IF network. After around 6 weeks of intoxication, ballooned hepatocytes show a reduced density of the keratin IF and early MBs can be observed as fine granules associated with the keratin IF network. Continuation of intoxication leads to the appearance of large MBs typically located in the perinuclear cytoplasmic region. […] Upon cessation of intoxication, MBs disappear within several weeks. At 4 weeks of recovery from intoxication, there are groups of hepatocytes devoid of cytoplasmic keratin filaments but still containing small remnants of MBs at the cell periphery in association with desmosomes. If such mice are reexposed to DDC or GF numerous MBs reappear within 24 to 72 hours (Stumptner C. et al., 2001, J. Hepatol., 34: 665-675). This enhanced formation of MBs upon reintoxication was interpreted—in analogy to allergic reactions—as a toxic memory effect.
In another set of experiments, 10 week-intoxication of mice with DDC or GF is followed by 4 weeks of recovery.

HepG2 cells = experiment: ROS production (DCF fluorescence) in HepG2 cells, basal and CoCl2 stimulated; assay type: cell-based, human
Procedure: Alternatively, the generation of ROS is measured by using the fluoroprobe 5-(and-6)-chloromethyl-2′,7′-dichlorodihydrofluorescein diacetate acetyl ester (CM-H2DCFDA, Molecular Probes, Goettingen, Germany) which is converted to fluorescent dichlorofluorescien (DCF; Djordjevic T. et al., 2004, Antioxidants & Redox Signaling, 6: 713-720). To determine DCF fluorescence in a microplate reader (Tecan, Crailsheim, Germany), cells (e.g. HepG2, Hep3B or SNU-398) are grown in 96-well plates to 80% confluency. […] After several washes with HBSS to remove excess dye, fluorescence is monitored by using 480 nm excitation and 540 nm emission wavelength. DCF fluorescence is standardized to the number of viable cells using the Alamar Blue test according to the manufacturer's instructions (Biosource, Nivelles, Belgium). […] The absorbance is then measured at the wavelength of […].
In another experiment HepG2 stimulated by 100 μM CoCl2 (Sigma) are used (Bel Aiba R. S. et al., 2004,. Biol Chem. 385:249-57). […] The fluorescence is measured in a plate-reader (Tecan Safire) after 0, 10, 20 and 30 minutes (Djordjevic T, et al., 2005, Free Radic Biol Med. 38:616-30).

[3] = system: human cell lines intoxicated with DDC or BSO; experiment: ROS formation in cell lines intoxicated with DDC or BSO; assay type: cell-based; details: simultaneous treatment at concentrations corresponding to EC50
Description: Another simple set of experiments employing hepatoma cell lines (e.g. HepG2 or Hep3B), the SNU-398 hepatocellular carcinoma-derived cell line (ATCC No. CRL-2233, LGC Promochem, Germany), the HUH-7 human carcinoma-derived cell line (Japanese collection of Research Biosources JCRB 0403) or the Tib-73 mouse embryonic liver cell line (ATCC TIB 73=BNL CL2 derived from BAL/c mouse, MD, USA) allows measurement of ROS production in these cells upon DDC intoxication.
To determine ROS production in for example hepatoma cell lines a standard experimental protocol according to Example 8 is applied. Tested hepatoma cells are grown in 96-well plates in culture medium (DMEM supplemented with 10% FCS, Gibco) to 80% confluency, subsequently washed with HBSS and incubated in the dark with DHE (10-50 μM) for 10 minutes at 37° C. Cells are then washed twice with Hank's balanced salt solution (HBSS, Gibco) to remove excess dye. Fluorescence is monitored in a fluorescence microscope (Olympus, Hamburg, Germany).
Alternatively, the generation of ROS is measured by using the fluoroprobe 5-(and-6)-chloromethyl-2′,7′-dichlorodihydrofluorescein diacetate acetyl ester (CM-H2DCFDA, Molecular Probes, Goettingen, Germany) which is converted to fluorescent dichlorofluorescien (DCF; Djordjevic T. et al., 2004, Antioxidants & Redox Signaling, 6: 713-720). To determine DCF fluorescence in a microplate reader (Tecan, Crailsheim, Germany), cells (e.g. HepG2, Hep3B or SNU-398) are grown in 96-well plates to 80% confluency. […] After several washes with HBSS to remove excess dye, fluorescence is monitored by using 480 nm excitation and 540 nm emission wavelength. DCF fluorescence is standardized to the number of viable cells using the Alamar Blue test according to the manufacturer's instructions (Biosource, Nivelles, Belgium). […] The absorbance is then measured at the wavelength of 580 μm.

MitoQ
gross signs of toxicity [1]: without any gross signs of toxicity | toxic memory effect (reappearance of MBs) [2]: reduced or abolished | CoCl2-stimulated ROS production (relative DCF fluorescence) (HepG2 cells; HepG2 cells, 100 μM CoCl2, 5 μM MitoQ): significantly decrease | basal ROS production (relative DCF fluorescence) (HepG2 cells; unstimulated HepG2 cells, 5 μM MitoQ): significantly decrease | ROS formation [3]: significant reduction in ROS formation
